# Laboratory results reported in patent publication US9382203B2, “N-carbamoylmethyl-4-(R)-phenyl-2-pyrrolidinone, method of its preparation and pharmaceutical use” (Joint Stock Company (JSC) “OLAINFARM”, priority 2006, dated 2016).
# Marks after values point to notes of the source that are not given here.
# Assays:
# Assay type in all cases: in vivo
# male ICR mice [1] = assay: Porsolt forced swim test (FST); details: for Immobility in FST (in words): after preliminary treatment, mice; for Immobilization time: i.p. 100 mg/kg, 1 hour before the test, male ICR mice
# male ICR mice [2] = assay: Open field test, locomotor activity; details: for Exploratory activity counts / Vertical activity counts / Horizontal activity counts: male ICR mice
# male ICR mice [3] = assay: Muscle relaxant activity, chimney test; details: Mus musculus, ip; i.p. administration in dosages 50; 100; 250 and 500 mg/kg
# male ICR mice [4] = assay: Muscle relaxant activity, traction test; details: Mus musculus, ip; i.p. administration in dosages 50; 100; 250 and 500 mg/kg
# male ICR mice [5] = assay: Muscle relaxant activity, rota rod test; details: Mus musculus, ip; i.p. administration in dosages 50; 100; 250 and 500 mg/kg
# male ICR mice [6] = assay: Analgesic effect, hot plate test; details: Mus musculus, ip; i.p. administration in dosages 50; 100; 250 and 500 mg/kg
Compound,Immobility in FST (in words) (male ICR mice [1]),Immobilization time (male ICR mice [1]),Exploratory activity counts (male ICR mice [2]; 30 min after i.p. 50 mg/kg) [counts],Vertical activity counts (male ICR mice [2]; 30 min after i.p. 50 mg/kg) [counts],Exploratory activity counts (male ICR mice [2]; 60 min after i.p. 50 mg/kg) [counts],Vertical activity counts (male ICR mice [2]; 60 min after i.p. 50 mg/kg) [counts],Exploratory activity counts (male ICR mice [2]; 120 min after i.p. 50 mg/kg) [counts],Vertical activity counts (male ICR mice [2]; 120 min after i.p. 50 mg/kg) [counts],Activity at the end of the 120 min observation period relative to S-Carphedon (male ICR mice [2]; i.p. 50 mg/kg),"Animal activity in open field test (in words) (male ICR mice [2]; i.p. 50 mg/kg, 120 min observation period)",ED50 (male ICR mice [3]) [mg/kg],ED50 (male ICR mice [4]) [mg/kg],ED50 (male ICR mice [5]) [mg/kg],ED50 (male ICR mice [6]) [mg/kg],Horizontal activity counts (male ICR mice [2]; 30 min after i.p. 50 mg/kg) [counts],Horizontal activity counts (male ICR mice [2]; 120 min after i.p. 50 mg/kg) [counts]
"NC(=O)CN1C[C@@H](c2ccccc2)CC1=O [R-Carphedon, N-Carbamoylmethyl-4(R)-phenyl-2-pyrrolidinone]",did not spent any time immobile,0^## sec,15.5 ± 2.9,10.0 ± 1.5,16.4 ± 3.6,12.5 ± 3.2,17.8 ± 4.7,11.6 ± 4.0,about two times higher,prolonged and stable increase in animal activity,199 ± 38,456 ± 122,193 ± 26,10 ± 42,,
"NC(=O)CN1C[C@H](c2ccccc2)CC1=O [S-Carphedon, N-Carbamoylmethyl-4(S)-phenyl-2-pyrrolidinone]",immobilization in response to stress factor,110 ± 12 s,,7.0 ± 1.6,7.8 ± 4.2,7.0 ± 2.8,11.5 ± 2.8,4.9 ± 1.7,,,286 ± 78,548 ± 75,459 ± 87,50 ± 63,56.3 ± 5.7,36.4 ± 7.1
